Measured values: PMC3488872 (Chemistry & biology, 2012)

Test system: HeLa cells transfected with GR-GFP
Experiment: GR-GFP translocation assay for cytosolic access

Compound: C[C@@H]1C[C@H]2[C@@H]3CCC4=CC(=O)C=C[C@]4(C)[C@@]3(F)[C@@H](O)C[C@]2(C)[C@@]1(O)C(=O)CO [Dex, dexamethasone]
- effect of bafilomycin on TR (200 nM bafilomycin 1 h pretreatment, then 1 μM): did not alter
- effect of EIPA on TR (50 μM EIPA 30 min pretreatment, then 1 μM 30 min 37°C): Neither EIPA nor dynasore blocked the increase
- effect of dynasore on TR (80 μM dynasore 30 min pretreatment, then 1 μM 30 min 37°C): Neither EIPA nor dynasore blocked the increase
- reduction of the increase in TR by MβCD (5 mM MβCD, 1 μM 30 min): 53%
